The nature of this test: Effect of the spilanthol amount in a chewing gum formulation (taste, mouth moistening). It is filed as in vivo. Particulars: below 75 ppm in a chewing gum formulation.

Take `C/C=C/C=C\CC/C=C/C(=O)NCC(C)C` [spilanthol, N-isobutyl-2E,6Z,8E-decatrienamide]: the “effectiveness for mouth-moistening purposes” value is reported as “insufficient”.

The record behind these values is US20130216649A1, “MOUTH-MOISTENING GUM COMPOSITIONS AND PRODUCTS CONTAINING THE SAME” (Kraft Foods Global Brands LLC, priority 2010, published 2013).
